# What was measured:
# Assay type in all cases: physicochemical
# [1] = Evaluation of thermal properties: weight-loss initiation temperature by thermogravimetry/differential thermal analyzer STA7200; settings: under atmospheric pressure
# Protocol: (§1) The weight-loss initiation temperatures of compounds (1), (5), (10) and compound A, serving as a compound of a comparative example, under atmospheric pressure were measured with a thermogravimetry/differential thermal analyzer STA7200 (available from Hitachi High-Tech Science Corporation). In addition, the sublimation temperature was defined as the temperature at which the rate of weight loss under vacuum (2 Pa) reached 5% and was measured with a thermogravimetry/differential thermal analyzer TA7000 (available from Hitachi High-Tech Science Corporation).
# [2] = Evaluation of thermal properties: sublimation temperature under vacuum by thermogravimetry/differential thermal analyzer TA7000; settings: temperature at which the rate of weight loss under vacuum (2 Pa) reached 5%
# Protocol: as §1
# [3] = Evaluation of solubility in toluene; settings: organic solvent or mixture, thermodynamic from solid; 50 mg in 1 mL of toluene, stirred at room temperature
# Protocol: First, 50 mg of compound (25), 50 mg of compound (29), which were synthesized in the above examples, and 50 mg of compound A as a comparative example were placed in respective sample bottles each containing 1 mL of toluene. The mixtures were stirred at room temperature to determine whether the compounds were dissolved.
SMILES,Weight-loss initiation temperature [1] [°C],Sublimation temperature [2] [°C],solubility [3] [mg/mL]
CC(C)(C)c1cc2ccc3cc4c(c5ccc(c1)c2c35)-c1ccc(-c2cccc(-c3ccc5c(c3)C(C)(C)c3cc6ccc7cc(C(C)(C)C)cc8ccc(c3-5)c6c78)n2)cc1C4(C)C [(10)],260,205,
CC(C)(C)c1cc2ccc3cc4c(c5ccc(c1)c2c35)-c1ccc(-c2cc(-c3ccc5c(c3)C(C)(C)c3cc6ccc7cc(C(C)(C)C)cc8ccc(c3-5)c6c78)ncn2)cc1C4(C)C [Compound (1)],450,385,
CC(C)(C)c1cc2ccc3cc4c(c5ccc(c1)c2c35)-c1ccc(-c2ncnc(-c3ccc5c(c3)C(C)(C)c3cc6ccc7cc(C(C)(C)C)cc8ccc(c3-5)c6c78)n2)cc1C4(C)C [Compound (5)],385,315,
CC(C)(C)c1cc2ccc3cc4c(c5ccc(c1)c2c35)-c1ccc(-c2ccc3c(c2)C2(c5ccccc5-c5ccccc52)c2cc(-c5ccc6c(c5)C(C)(C)c5cc7ccc8cc(C(C)(C)C)cc9ccc(c5-6)c7c89)ccc2-3)cc1C4(C)C [Compound (25)],,,> 50
CC(C)(C)c1cc2ccc3cc4c(c5ccc(c1)c2c35)-c1ccc(-c2ccc3c(c2)C2(c5ccccc5-3)c3ccccc3-c3ccc(-c5ccc6c(c5)C(C)(C)c5cc7ccc8cc(C(C)(C)C)cc9ccc(c5-6)c7c89)cc32)cc1C4(C)C [Compound (29)],,,> 50
CC(C)(C)c1cc2ccc3cc4c(c5ccc(c1)c2c35)-c1ccc(-c2ccc(-c3ccc(-c5ccc6c(c5)C(C)(C)c5cc7ccc8cc(C(C)(C)C)cc9ccc(c5-6)c7c89)cc3)cc2)cc1C4(C)C [Compound A],550,470,< 50

# Reference: US20230403873A1, “ORGANIC COMPOUND AND ORGANIC LIGHT-EMITTING DEVICE” (CANON KABUSHIKI KAISHA, priority 2022, published 2023)
